{"source": "ChEMBL document CHEMBL1201862", "about": "“PubChem BioAssay data set” (2004)", "key": {"[1]": {"molecular_target": "Luciferin 4-monooxygenase (Photinus pyralis, UniProt P08659)", "sequence (P08659 whole entry)": "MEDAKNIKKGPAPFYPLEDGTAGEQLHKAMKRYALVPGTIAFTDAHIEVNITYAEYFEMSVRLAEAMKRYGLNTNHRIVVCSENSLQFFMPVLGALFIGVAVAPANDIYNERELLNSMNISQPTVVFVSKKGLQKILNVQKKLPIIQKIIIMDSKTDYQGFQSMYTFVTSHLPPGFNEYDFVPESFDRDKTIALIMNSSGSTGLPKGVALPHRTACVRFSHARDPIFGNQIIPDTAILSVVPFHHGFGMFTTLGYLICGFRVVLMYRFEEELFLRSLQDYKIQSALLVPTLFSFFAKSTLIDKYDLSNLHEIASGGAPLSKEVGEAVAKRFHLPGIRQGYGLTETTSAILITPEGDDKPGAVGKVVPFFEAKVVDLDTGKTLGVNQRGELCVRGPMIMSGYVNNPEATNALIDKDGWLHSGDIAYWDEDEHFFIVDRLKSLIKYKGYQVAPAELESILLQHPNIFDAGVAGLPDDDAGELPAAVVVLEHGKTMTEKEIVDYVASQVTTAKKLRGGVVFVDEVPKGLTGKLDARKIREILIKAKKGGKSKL", "test": "firefly luciferase enzyme inhibitors, dose response, biochemical, luminescence (AID 1891)"}, "[2]": {"test": "Luminescence Cell-Based Dose Confirmation HTS to Identify Inhibitors of Platelet Dense Granule Release. [Related pubchem assays: 1663 (Primary HTS), 1678 (Summary of Project)]", "format": "functional"}, "[3]": {"test": "inhibitors of firefly luciferase expression or activity, dose response, H4 neuroglioma cells, luminescence (AID 1990)", "format": "functional, cell-based"}, "[4]": {"test": "Luminescence Cell-Based Dose Response HTS to Identify Inhibitors of 5'UTR Stem-Loop Driven Prion Protein mRNA Translation in H4 Neuroglioblastoma Cells. [Related pubchem assays: 1827 (Project Summary), 1813 (Primary HTS)]", "format": "functional"}, "[5]": {"test": "inhibitors of SNCA 5'UTR-driven reporter translation, confirmation, H4 neuroglioma cells, luminescence (AID 1988)", "format": "functional, cell-based"}, "[6]": {"molecular_target": "Voltage-dependent T-type calcium channel subunit alpha-1H (Homo sapiens, UniProt O95180)", "sequence (O95180 whole entry)": "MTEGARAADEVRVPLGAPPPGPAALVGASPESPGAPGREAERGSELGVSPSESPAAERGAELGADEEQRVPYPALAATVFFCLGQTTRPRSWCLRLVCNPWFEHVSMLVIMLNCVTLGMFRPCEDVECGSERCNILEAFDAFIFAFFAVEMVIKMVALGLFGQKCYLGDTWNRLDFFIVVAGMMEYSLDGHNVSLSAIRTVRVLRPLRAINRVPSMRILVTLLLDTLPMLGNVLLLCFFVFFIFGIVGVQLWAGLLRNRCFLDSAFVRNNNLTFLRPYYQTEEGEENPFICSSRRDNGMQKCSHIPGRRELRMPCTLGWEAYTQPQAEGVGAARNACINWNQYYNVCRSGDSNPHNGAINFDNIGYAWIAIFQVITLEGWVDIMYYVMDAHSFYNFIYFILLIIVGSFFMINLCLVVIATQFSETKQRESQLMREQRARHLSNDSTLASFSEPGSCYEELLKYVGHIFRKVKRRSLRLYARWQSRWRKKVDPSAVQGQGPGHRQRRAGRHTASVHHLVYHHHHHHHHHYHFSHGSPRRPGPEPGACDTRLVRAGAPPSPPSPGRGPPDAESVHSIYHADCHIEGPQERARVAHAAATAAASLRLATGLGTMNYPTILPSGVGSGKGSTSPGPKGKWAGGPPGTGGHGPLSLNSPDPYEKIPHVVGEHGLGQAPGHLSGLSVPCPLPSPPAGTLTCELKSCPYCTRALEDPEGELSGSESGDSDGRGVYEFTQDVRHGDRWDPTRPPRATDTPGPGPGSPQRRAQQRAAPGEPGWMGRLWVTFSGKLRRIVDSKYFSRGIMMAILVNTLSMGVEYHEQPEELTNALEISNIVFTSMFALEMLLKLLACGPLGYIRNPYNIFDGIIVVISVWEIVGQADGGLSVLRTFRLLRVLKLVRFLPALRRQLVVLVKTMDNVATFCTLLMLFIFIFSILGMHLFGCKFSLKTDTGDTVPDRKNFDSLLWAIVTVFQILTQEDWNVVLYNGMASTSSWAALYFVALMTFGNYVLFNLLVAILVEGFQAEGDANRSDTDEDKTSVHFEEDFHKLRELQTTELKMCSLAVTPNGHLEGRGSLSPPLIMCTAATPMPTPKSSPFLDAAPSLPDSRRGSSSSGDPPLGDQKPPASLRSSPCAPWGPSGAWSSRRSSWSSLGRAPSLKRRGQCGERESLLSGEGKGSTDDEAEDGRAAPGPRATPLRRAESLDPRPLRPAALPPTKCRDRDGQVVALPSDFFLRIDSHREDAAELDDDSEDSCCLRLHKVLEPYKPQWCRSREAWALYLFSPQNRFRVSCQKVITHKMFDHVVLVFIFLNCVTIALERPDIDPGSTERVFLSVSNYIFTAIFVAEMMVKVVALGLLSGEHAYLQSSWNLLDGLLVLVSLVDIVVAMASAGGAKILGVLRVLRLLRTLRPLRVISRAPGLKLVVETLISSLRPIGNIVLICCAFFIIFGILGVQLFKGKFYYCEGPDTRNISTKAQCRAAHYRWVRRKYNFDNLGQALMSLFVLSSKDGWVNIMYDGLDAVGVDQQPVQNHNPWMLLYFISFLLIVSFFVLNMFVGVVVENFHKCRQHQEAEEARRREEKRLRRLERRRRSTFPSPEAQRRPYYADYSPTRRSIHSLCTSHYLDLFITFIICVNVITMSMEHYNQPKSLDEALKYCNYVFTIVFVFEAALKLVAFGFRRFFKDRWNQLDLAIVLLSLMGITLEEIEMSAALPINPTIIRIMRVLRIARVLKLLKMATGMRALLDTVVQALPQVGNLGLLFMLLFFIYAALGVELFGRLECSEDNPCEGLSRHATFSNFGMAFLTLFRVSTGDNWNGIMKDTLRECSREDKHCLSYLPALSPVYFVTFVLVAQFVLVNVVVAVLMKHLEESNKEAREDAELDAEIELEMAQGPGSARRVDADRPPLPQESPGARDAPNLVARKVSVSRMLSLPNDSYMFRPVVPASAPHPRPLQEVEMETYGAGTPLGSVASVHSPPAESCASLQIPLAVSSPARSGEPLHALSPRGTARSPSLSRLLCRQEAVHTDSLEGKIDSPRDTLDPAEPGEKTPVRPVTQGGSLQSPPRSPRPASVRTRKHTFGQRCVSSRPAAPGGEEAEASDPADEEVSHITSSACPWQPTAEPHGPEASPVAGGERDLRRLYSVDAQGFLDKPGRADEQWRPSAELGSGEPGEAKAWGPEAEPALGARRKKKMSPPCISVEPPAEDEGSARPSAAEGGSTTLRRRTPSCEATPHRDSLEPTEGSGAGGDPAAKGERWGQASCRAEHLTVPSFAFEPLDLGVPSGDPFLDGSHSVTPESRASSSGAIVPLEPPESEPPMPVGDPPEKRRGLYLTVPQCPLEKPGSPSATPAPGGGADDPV", "format": "functional"}, "[7]": {"test": "microbe, parasite or virus in culture", "format": "functional", "conditions": "Mycobacterium tuberculosis"}, "[8]": {"test": "Luminescence Cell-Based Dose Retest to Confirm Inhibitors of Cancer Stem Cells. [Related pubchem assays (depositor defined):AID2717, AID2721]", "format": "functional", "conditions": "Homo sapiens"}, "[9]": {"test": "HEp-2 cell cytotoxicity, dose response, cytotoxicity control for RSV inhibitor project, HTS (AID 2410)", "format": "functional", "conditions": "human respiratory syncytial virus"}, "[10]": {"molecular_target": "T1, Calpain-2 catalytic subunit (Sus scrofa, UniProt P43367)", "T1 sequence (P43367 whole entry)": "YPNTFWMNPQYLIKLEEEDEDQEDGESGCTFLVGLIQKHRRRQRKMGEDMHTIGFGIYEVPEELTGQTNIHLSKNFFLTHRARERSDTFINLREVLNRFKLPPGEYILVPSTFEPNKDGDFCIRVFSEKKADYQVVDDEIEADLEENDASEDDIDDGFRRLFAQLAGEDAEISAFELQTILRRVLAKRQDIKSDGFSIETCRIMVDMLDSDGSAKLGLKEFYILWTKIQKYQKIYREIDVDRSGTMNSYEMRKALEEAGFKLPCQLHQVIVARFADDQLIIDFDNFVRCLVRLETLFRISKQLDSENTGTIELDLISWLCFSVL", "test": "pig calpain II inhibitor potency, dose response, biochemical, fluorogenic peptide substrate (AID 1420)", "format": "functional"}, "[11]": {"test": "growth suppression of PTEN-null colon cells, dose response, cell-based, HCT116 PTEN knockout (AID 1047);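 further: HCT116 colon tumor cells with PTEN knocked out; cells exposed to compound for 60 hours before readout; potency for loss of cell viability measured by luminescence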", "format": "functional"}, "[12]": {"test": "growth suppression of beta-catenin-knockout colon cells, dose response, cell-based, HCT116, human colon tumor (AID 1045);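 further: HCT116 colon tumor cells with beta catenin knocked out; cells exposed to compound for 60 hours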", "format": "functional"}, "[13]": {"test": "NIH-3T3 fibroblast cytotoxicity, dose response, cytotoxicity control, cell-based, fluorescence, Alamar Blue, secondary assay (AID 2327);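 further: NIH-3T3 mouse fibroblasts cultured with fluconazole at 8 µg/mL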", "format": "functional"}, "Fatty acid synthase [14]": {"molecular_target": "T2, Fatty acid synthase (Homo sapiens, UniProt P49327)", "test": "FAS thioesterase domain inhibitors, dose response, biochemical, endpoint fluorescence intensity, uHTS hits (AID 624327);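 further: fluorescence from hydrolysis of an O-methyl fluorescein acyl ester substrate by the enzyme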", "format": "functional"}, "Fatty acid synthase [15]": {"molecular_target": "T2, Fatty acid synthase", "test": "FAS thioesterase domain inhibitors, dose response, biochemical, kinetic fluorescence intensity (AID 624326);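 further: rate of fluorescence rise from hydrolysis of a fluorogenic O-methyl fluorescein ester substrate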", "format": "functional"}}, "note": "The source made the active and inactive calls.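 Wherever AC50 is given: cells exposed to compound for roughly 70 hours or longer before luminescence read.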"}
{"smiles": "Cc1ccccc1C(=O)NC1CCN(C(=O)N2CCOCC2)CC1", "values": [{"measurement": "EC50", "setting": "[1]", "result": "> 112 µM (not active)"}, {"measurement": "EC50", "setting": "[2]", "result": "> 112 µM (not active)"}]}
{"smiles": "COCCNc1nc(N)c([N+](=O)[O-])c(NC2CCCCC2)n1", "values": [{"measurement": "EC50", "setting": "[3]", "result": "16.2 µM (active)"}, {"measurement": "EC50", "setting": "[4]", "result": "> 120 µM (not active)"}, {"measurement": "EC50", "setting": "[5]", "result": "77.7 µM (active)"}]}
{"smiles": "Cc1cc(C)c(NC(=O)C(C)c2cccc(C(=O)c3ccccc3)c2)c(C)c1", "note": "(configuration not stated)", "values": [{"measurement": "EC50", "setting": "[6]", "result": "3.26 µM (active)"}]}
{"smiles": "COc1ccc(-c2nc(C[S+]([O-])CC(=O)NC3CCCCC3C)c(C)o2)cc1", "note": "(configuration not stated)", "values": [{"measurement": "EC50", "setting": "[1]", "result": "> 112 µM (not active)"}, {"measurement": "EC50", "setting": "[2]", "result": "> 112 µM (not active)"}]}
{"smiles": "Cc1cc(N2CCN(c3ccc(C(F)(F)F)cc3[N+](=O)[O-])CC2)c2ccccc2n1", "values": [{"measurement": "CC50", "setting": "[7]", "result": "> 40 µM (active)"}, {"measurement": "AC50", "setting": "[8]", "result": "0.726 µM (active)"}]}
{"smiles": "CC(C)c1ccc(NC(S)=NC2CCN(Cc3ccccc3)CC2)cc1", "values": [{"measurement": "CC50", "setting": "[9]", "result": "20.6 µM (active)"}, {"measurement": "EC50", "setting": "[1]", "result": "> 112 µM (not active)"}, {"measurement": "EC50", "setting": "[2]", "result": "> 112 µM (not active)"}]}
{"smiles": "CCN(CC(O)Cn1c2ccccc2c2ccccc21)S(=O)(=O)c1ccc(C)cc1", "note": "(configuration not stated)", "values": [{"measurement": "IC50", "setting": "[10]", "result": "2.61 µM (not active)"}]}
{"smiles": "CCOC(=O)N1CCN(Cc2cc(=O)oc3cc4c(cc23)CCC4)CC1", "values": [{"measurement": "EC50", "setting": "[1]", "result": "> 112 µM (not active)"}, {"measurement": "EC50", "setting": "[2]", "result": "> 112 µM (not active)"}]}
{"smiles": "Cc1snc(S(=O)(=O)/C(C#N)=N/Nc2cccc(C(F)(F)F)c2)c1C#N", "values": [{"measurement": "EC50", "setting": "[6]", "result": "7.53 µM (active)"}]}
{"smiles": "CCO/C(O)=C1\\C(C)=NC(SCC(=O)Nc2nc(C)cs2)=C(C#N)C1c1cccs1", "note": "(configuration not stated)", "values": [{"measurement": "CC50", "setting": "[7]", "result": "> 40 µM (active)"}, {"measurement": "EC50", "setting": "[11]", "result": "14.5 µM (active)"}, {"measurement": "EC50", "setting": "[12]", "result": "16.6 µM (active)"}]}
{"smiles": "O=C(CCCN1C(=O)c2ccccc2C1=O)C1=C(NCCO)CC(c2ccccc2)CC1=O", "note": "(configuration not stated)", "values": [{"measurement": "EC50", "setting": "[13]", "result": "> 150 µM (inactive)"}, {"measurement": "IC50", "setting": "[10]", "result": "30.4 µM (not active)"}]}
{"smiles": "O=C(N/C(=C/C=C\\c1ccccc1)C(=O)N1CCOCC1)c1ccc(Br)cc1", "values": [{"measurement": "EC50", "setting": "[3]", "result": "> 120 µM (not active)"}, {"measurement": "EC50", "setting": "[4]", "result": "> 120 µM (not active)"}, {"measurement": "EC50", "setting": "[5]", "result": "> 120 µM (not active)"}, {"measurement": "IC50", "setting": "Fatty acid synthase [14]", "result": "7.92 µM (active)"}, {"measurement": "IC50", "setting": "Fatty acid synthase [15]", "result": "7.63 µM (active)"}]}
